In one data set the target is T1, Cytochrome P450 1A2 (Homo sapiens, UniProt P05177).
T1 sequence (P05177 whole entry): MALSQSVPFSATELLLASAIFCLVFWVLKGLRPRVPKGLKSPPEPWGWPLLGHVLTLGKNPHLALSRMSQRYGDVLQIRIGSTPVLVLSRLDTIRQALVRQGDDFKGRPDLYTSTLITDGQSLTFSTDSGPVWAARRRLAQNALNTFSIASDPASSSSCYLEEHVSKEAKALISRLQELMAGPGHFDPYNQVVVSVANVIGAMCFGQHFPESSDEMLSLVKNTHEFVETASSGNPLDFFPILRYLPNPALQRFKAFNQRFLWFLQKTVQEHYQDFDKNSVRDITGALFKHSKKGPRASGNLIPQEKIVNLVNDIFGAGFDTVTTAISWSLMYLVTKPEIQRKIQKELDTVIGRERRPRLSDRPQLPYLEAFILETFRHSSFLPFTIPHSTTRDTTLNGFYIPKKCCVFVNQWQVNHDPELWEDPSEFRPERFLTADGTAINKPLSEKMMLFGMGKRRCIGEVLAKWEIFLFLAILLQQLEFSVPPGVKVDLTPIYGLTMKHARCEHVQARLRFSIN
Briefly: Inhibition of CYP1A2 in human liver microsomes using phenacetin as substrate by LC-MS/MS analysis. The format is ADME.

Data set [1] is described as follows: Clearance in cynomolgus monkey liver microsomes. The class given is ADME, Macaca fascicularis, Microsome. A general note: Liver microsomes are a subcellular fraction often used to study metabolism.

pIC50: −log10 of the molar value.

On Cytochrome P450 1A2, `O=C(NCc1ncc(C(F)(F)F)cc1Cl)c1ccc2c(c1)C1(CCS(=O)(=O)CC1)[C@H](C1CC1)N2S(=O)(=O)c1ccc(F)cc1` [BAY-784] had a negative logarithm of the IC50 (pIC50) of less than 5.00. In addition, the CLH in data set [1] was found to be 8.17 mL/min/kg.

Usually pIC50 stands for −log10 of the IC50, conventionally taken in molar units.

Values taken from ChEMBL document CHEMBL4673248, “Discovery and Characterization of BAY 1214784, an Orally Available Spiroindoline Derivative Acting as a Potent and Selective Antagonist of the Human Gonadotropin-Releasing Hormone Receptor as Proven in a First-In-Human Study in Postmenopausal Women” (J Med Chem, 2020).
